Experiment [1] has as its target T1, nicotinic acetylcholine receptor (Torpedo nAChR, α2βγδ), α subunit (Tetronarce californica, UniProt P02710+P02712+P02714+P02718). The experiment in a line: [3H]PCP radioligand displacement. Format: binding.
Experiment [2] has as its target T1, nicotinic acetylcholine receptor (Torpedo nAChR, α2βγδ), α subunit. The experiment in a line: [3H]PCP radioligand displacement, centrifugation assay. The experiment is classed as binding. Background: Displacement assays read how much labelled ligand stays bound in the presence of the test substance.

Three compounds from article PMC2878666 (Biochemistry, 2009) can be followed below.

Usually IC50 stands for the point on the concentration scale where inhibition reaches its midpoint. Lower therefore signals inhibition by little substance.

T1 sequence (P02710 25-461): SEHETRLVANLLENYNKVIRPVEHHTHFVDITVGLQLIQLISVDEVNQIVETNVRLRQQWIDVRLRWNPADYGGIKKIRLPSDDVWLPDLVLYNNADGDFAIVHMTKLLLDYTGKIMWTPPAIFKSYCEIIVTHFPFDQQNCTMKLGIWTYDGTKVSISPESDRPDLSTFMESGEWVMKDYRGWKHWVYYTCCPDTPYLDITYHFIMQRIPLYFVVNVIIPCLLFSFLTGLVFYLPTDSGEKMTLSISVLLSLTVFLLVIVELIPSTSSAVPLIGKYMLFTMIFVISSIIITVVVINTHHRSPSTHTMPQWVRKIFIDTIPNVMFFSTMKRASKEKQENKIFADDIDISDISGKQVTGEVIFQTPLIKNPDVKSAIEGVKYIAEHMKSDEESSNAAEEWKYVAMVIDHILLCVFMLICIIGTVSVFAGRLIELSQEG
T1 sequence (P02712 25-493): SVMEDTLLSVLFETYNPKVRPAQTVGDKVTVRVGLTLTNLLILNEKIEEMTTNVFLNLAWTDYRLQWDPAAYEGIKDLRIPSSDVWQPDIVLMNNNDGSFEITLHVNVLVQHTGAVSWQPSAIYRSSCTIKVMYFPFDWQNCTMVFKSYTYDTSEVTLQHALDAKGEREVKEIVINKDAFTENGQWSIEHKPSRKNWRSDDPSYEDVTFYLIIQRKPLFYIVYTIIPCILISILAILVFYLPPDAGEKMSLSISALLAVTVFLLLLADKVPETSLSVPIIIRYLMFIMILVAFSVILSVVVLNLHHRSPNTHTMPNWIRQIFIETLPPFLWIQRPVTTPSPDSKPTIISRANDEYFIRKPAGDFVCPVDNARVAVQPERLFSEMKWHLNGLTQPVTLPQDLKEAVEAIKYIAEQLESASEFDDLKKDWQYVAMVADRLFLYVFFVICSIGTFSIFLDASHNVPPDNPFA
T1 sequence (P02714 18-506): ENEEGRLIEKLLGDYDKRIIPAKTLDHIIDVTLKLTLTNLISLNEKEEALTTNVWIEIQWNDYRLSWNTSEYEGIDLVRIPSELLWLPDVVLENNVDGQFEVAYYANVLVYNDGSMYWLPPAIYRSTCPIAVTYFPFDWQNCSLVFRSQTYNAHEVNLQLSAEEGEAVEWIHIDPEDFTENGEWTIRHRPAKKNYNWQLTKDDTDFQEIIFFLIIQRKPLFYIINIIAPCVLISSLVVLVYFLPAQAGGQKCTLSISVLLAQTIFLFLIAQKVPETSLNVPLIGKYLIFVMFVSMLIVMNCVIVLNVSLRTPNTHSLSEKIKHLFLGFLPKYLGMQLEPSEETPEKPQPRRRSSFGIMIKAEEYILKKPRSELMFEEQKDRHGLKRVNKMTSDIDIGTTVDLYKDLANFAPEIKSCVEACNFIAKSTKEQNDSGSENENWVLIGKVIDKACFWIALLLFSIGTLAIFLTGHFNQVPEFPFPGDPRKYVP
T1 sequence (P02718 22-522): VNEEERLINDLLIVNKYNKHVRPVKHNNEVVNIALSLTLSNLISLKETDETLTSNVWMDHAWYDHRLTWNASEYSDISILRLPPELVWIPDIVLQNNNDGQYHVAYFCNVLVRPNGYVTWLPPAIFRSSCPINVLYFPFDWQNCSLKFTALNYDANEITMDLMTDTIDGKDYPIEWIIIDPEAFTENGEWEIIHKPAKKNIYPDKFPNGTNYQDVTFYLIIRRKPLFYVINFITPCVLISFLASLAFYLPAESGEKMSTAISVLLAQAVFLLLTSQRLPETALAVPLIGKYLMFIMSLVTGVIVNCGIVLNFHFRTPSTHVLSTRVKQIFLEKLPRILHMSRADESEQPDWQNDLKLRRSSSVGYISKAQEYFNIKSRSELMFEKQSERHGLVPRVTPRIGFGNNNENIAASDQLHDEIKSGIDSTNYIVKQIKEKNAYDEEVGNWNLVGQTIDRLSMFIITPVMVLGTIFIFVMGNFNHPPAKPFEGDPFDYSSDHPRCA

In experiment [1], `CN(C)CCCN1c2ccccc2Sc2ccc(Cl)cc21` [CPZ, chlorpromazine] returned an IC50 of 2.3 ± 0.4 µM.
The compound `CN(C)CCCN1c2ccccc2[S+]([O-])c2ccc(Cl)cc21` (stereo not drawn) [CPZsulfoxide, chlorpromazine sulfoxide] showed an IC50 in experiment [2] of 69 ± 6 µM.
As for `CN(C)CCCN1c2ccccc2Sc2ccccc21` [promazine], in experiment [2], the IC50 is 3.5 ± 0.2 µM.
